In PubChem BioAssay AID248 (DTP/NCI, 2004) one finds T/C data, which are given here for 18 compounds.

The subject of the assay is L1210 leukemia ip in BDF1 mice, survival T/C. Kind of assay: NCI In Vivo Anticancer Drug Screen. Data for tumor model L1210 Leukemia (intraperitoneal) in B6D2F1 (BDF1) mice. The following applies: endpoint: mean survival time, higher = longer survival. A digest of the protocol:
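In this screen, tumor-bearing mice given compound are compared to those given vehicle, and their survival values are reported as a treated-to-control quotient.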

Where [1] appears, read: dose: 100.0 mg/kg/injection, schedule: Q01DX001 (ip), vehicle: saline.
[2] abbreviates: dose: 200.0 mg/kg/injection, schedule: Q01DX001 (ip), vehicle: saline.
Where [3] appears, read: dose: 400.0 mg/kg/injection, schedule: Q01DX001 (ip), vehicle: saline.
The mark [4] stands for this setting: dose: 100.0 mg/kg/injection, schedule: Q04DX003 (ip), vehicle: saline.
Setting [5] is: dose: 200.0 mg/kg/injection, schedule: Q04DX003 (ip), vehicle: saline.
Where [6] appears, read: dose: 400.0 mg/kg/injection, schedule: Q04DX003 (ip), vehicle: saline.
[7] abbreviates: dose: 75.0 mg/kg/injection, schedule: Q01DX001 (ip), vehicle: carboxymethylcellulose (CMC).
[8] abbreviates: dose: 100.0 mg/kg/injection, schedule: Q01DX001 (ip), vehicle: carboxymethylcellulose (CMC).
[9] abbreviates: dose: 50.0 mg/kg/injection, schedule: Q04DX002 (ip), vehicle: Klucel (hydroxypropylcellulose) (HPC).
[10] abbreviates: dose: 100.0 mg/kg/injection, schedule: Q04DX002 (ip), vehicle: Klucel (hydroxypropylcellulose) (HPC).
Setting [11] is: dose: 200.0 mg/kg/injection, schedule: Q04DX002 (ip), vehicle: Klucel (hydroxypropylcellulose) (HPC).
[12] abbreviates: dose: 100.0 mg/kg/injection, schedule: Q01DX001 (ip), vehicle: Klucel (hydroxypropylcellulose) (HPC).
Setting [13] is: dose: 200.0 mg/kg/injection, schedule: Q01DX001 (ip), vehicle: Klucel (hydroxypropylcellulose) (HPC).

SMILES strings stand for the structures. Values joined by “and” are separate entries in the source; they are usually repeats but may differ in a detail not shown here. Identical values can stand only once. Inconclusive results and toxic doses are left out.

For the compound `N#CC(/C=C/c1ccccc1)NCC(O)c1ccccc1` (stereo not drawn), the T/C reads like this: (dose: 100.0 mg/kg/injection, schedule: Q01DX009 (ip), vehicle: saline sonified) 95 % of control; (dose: 200.0 mg/kg/injection, schedule: Q01DX009 (ip), vehicle: saline sonified) 95 % of control; (dose: 400.0 mg/kg/injection, schedule: Q01DX009 (ip), vehicle: saline sonified) 95 % of control.
For `O=C(OCCCl)c1ccco1`, the T/C was 102 % of control under setting [1], 102 % of control under setting [2] and 107 % of control under setting [3].
For `NNC(=O)CCCCC(=O)NN`, the T/C is 100 % of control under setting [4], 97 % of control under setting [5] and 100 % of control under setting [6].
Take `CN(C)c1ccccc1C1CCCCCC1O` (stereo not drawn): the T/C by setting is: under setting [7], 101 % of control; (dose: 150.0 mg/kg/injection, schedule: Q01DX001 (ip), vehicle: carboxymethylcellulose (CMC)) 90 % of control; (dose: 300.0 mg/kg/injection, schedule: Q01DX001 (ip), vehicle: carboxymethylcellulose (CMC)) 90 % of control.
Take `COc1cc(CC2c3cccc(Oc4ccc(C)cc4)c3CCN2C)ccc1Oc1ccc(C)cc1` (stereo not drawn): the T/C is 96 % of control (dose: 100.0 mg/kg/injection, schedule: Q04DX002 (ip), vehicle: other); 100 % of control (dose: 200.0 mg/kg/injection, schedule: Q04DX002 (ip), vehicle: other); 100 % of control (dose: 400.0 mg/kg/injection, schedule: Q04DX002 (ip), vehicle: other).
On to `N/N=C1/CCN2CCCc3cccc1c32`, for which the T/C is 101 % of control (dose: 100.0 mg/kg/injection, schedule: Q04DX003 (ip), vehicle: saline with Tween-80) and 96 % of control (dose: 200.0 mg/kg/injection, schedule: Q04DX003 (ip), vehicle: saline with Tween-80).
Turning to `COc1ccccc1CN1CCCN(Cc2ccccc2OC)C1c1cc(Br)c(OC)c(OC)c1`, the T/C was 91 % of control under setting [8]; 91 % of control (dose: 200.0 mg/kg/injection, schedule: Q01DX001 (ip), vehicle: carboxymethylcellulose (CMC)); 87 % of control (dose: 400.0 mg/kg/injection, schedule: Q01DX001 (ip), vehicle: carboxymethylcellulose (CMC)).
`CC(C)(C)N=C(N)N[N+](=O)[O-]`: the T/C is 104 % of control under setting [9], 100 % of control under setting [10] and 104 % of control under setting [11].
On to `CSC(C#N)NC(=O)c1ccc([N+](=O)[O-])cc1` (stereo not drawn), for which the T/C was 98 % of control under setting [9]; 97 % of control and 109 % of control under setting [10]; 98 % of control and 109 % of control under setting [11].
`CCCCCCCCc1c(N)nc(N)[nH]c1=O`: the T/C is 99 % of control under setting [12]; 92 % of control under setting [13]; 92 % of control (dose: 400.0 mg/kg/injection, schedule: Q01DX001 (ip), vehicle: Klucel (hydroxypropylcellulose) (HPC)).
As for `Cn1nc(Br)c(=O)n(C(c2ccccc2)c2ccccc2)c1=O`, the T/C was 110 % of control (dose: 22.0 mg/kg/injection, schedule: Q01DX015 (ip), vehicle: other); 103 % of control (dose: 33.0 mg/kg/injection, schedule: Q01DX015 (ip), vehicle: other); 100 % of control (dose: 44.0 mg/kg/injection, schedule: Q01DX001 (ip), vehicle: other); 103 % of control (dose: 50.0 mg/kg/injection, schedule: Q01DX015 (ip), vehicle: other); 102 % of control and 108 % of control (dose: 66.0 mg/kg/injection, schedule: Q01DX001 (ip), vehicle: other); 106 % of control (dose: 75.0 mg/kg/injection, schedule: Q01DX015 (ip), vehicle: other). The T/C was 100 % of control and 104 % of control (dose: 150.0 mg/kg/injection, schedule: Q01DX001 (ip), vehicle: other); 154 % of control (dose: 200.0 mg/kg/injection, schedule: Q01DX001 (ip), vehicle: other); 154 % of control (dose: 400.0 mg/kg/injection, schedule: Q01DX001 (ip), vehicle: other).
For the compound `Cc1ccc(/C([O-])=C(\C(=S)Nc2cccc(C)c2)[n+]2ccccc2)cc1`, the T/C runs as follows: (dose: 100.0 mg/kg/injection, schedule: Q01DX009 (ip), vehicle: saline with Tween-80) 103 % of control and 112 % of control; (dose: 100.0 mg/kg/injection, schedule: Q04DX002 (ip), vehicle: saline with Tween-80) 93 % of control and 95 % of control; (dose: 200.0 mg/kg/injection, schedule: Q01DX009 (ip), vehicle: saline with Tween-80) 93 % of control and 100 % of control; (dose: 200.0 mg/kg/injection, schedule: Q04DX002 (ip), vehicle: saline with Tween-80) 93 % of control and 115 % of control; (dose: 400.0 mg/kg/injection, schedule: Q01DX009 (ip), vehicle: saline with Tween-80) 95 % of control and 101 % of control; (dose: 400.0 mg/kg/injection, schedule: Q04DX002 (ip), vehicle: saline with Tween-80) 98 % of control and 107 % of control.
For `Cc1ccc(NC(=O)N(CCCl)N=O)cc1`, the T/C is 103 % of control (dose: 0.5 mg/kg/injection, schedule: Q01DX015 (ip), vehicle: carboxymethylcellulose (CMC)); 107 % of control (dose: 1.0 mg/kg/injection, schedule: Q01DX015 (ip), vehicle: carboxymethylcellulose (CMC)); 169 % of control (dose: 5.2 mg/kg/injection, schedule: Q01DX015 (ip), vehicle: carboxymethylcellulose (CMC)); 165 % of control (dose: 9.0 mg/kg/injection, schedule: Q01DX015 (ip), vehicle: carboxymethylcellulose (CMC)); 206 % of control (dose: 15.0 mg/kg/injection, schedule: Q01DX015 (ip), vehicle: carboxymethylcellulose (CMC)); 161 % of control (dose: 22.0 mg/kg/injection, schedule: Q01DX001 (ip), vehicle: carboxymethylcellulose (CMC)). The T/C is, setting by setting: (dose: 25.0 mg/kg/injection, schedule: Q01DX015 (ip), vehicle: carboxymethylcellulose (CMC)) 152 % of control; (dose: 33.0 mg/kg/injection, schedule: Q01DX001 (ip), vehicle: carboxymethylcellulose (CMC)) 152 % of control; (dose: 50.0 mg/kg/injection, schedule: Q01DX001 (ip), vehicle: carboxymethylcellulose (CMC)) 171 % of control and 197 % of control; under setting [7], 118 % of control; under setting [8], 86 % of control.
Turning to `Cc1ccc(NC(=O)OCCCl)cc1`, the T/C is 117 % of control under setting [1] and 112 % of control under setting [2].
Regarding `CC(=O)Nc1ccc(OC(C)(C)C)cc1`, the T/C by setting is: (dose: 50.0 mg/kg/injection, schedule: Q01DX001 (ip), vehicle: saline) 101 % of control; under setting [1], 106 % of control; under setting [2], 97 % of control; under setting [3], 95 % of control.
As for `CCOC(=O)C(=N\Nc1ccccc1OC)/C(C)=N\NC(N)=S`, the T/C runs as follows: (dose: 75.0 mg/kg/injection, schedule: Q01DX001 (ip), vehicle: acetone) 93 % of control; (dose: 150.0 mg/kg/injection, schedule: Q01DX001 (ip), vehicle: acetone) 90 % of control; (dose: 150.0 mg/kg/injection, schedule: Q01DX001 (ip), vehicle: saline) 94 % of control.
With `COC(=O)CC[N+]12CN3CN(CN(C3)C1)C2`, the T/C is, setting by setting: under setting [1], 91 % of control; under setting [4], 106 % of control; under setting [2], 100 % of control; under setting [5], 106 % of control; under setting [3], 96 % of control; under setting [6], 105 % of control.
As to `Nc1nc(=S)[nH]c(C(=O)O)c1Oc1ccccc1`, the T/C (dose: 50.0 mg/kg/injection, schedule: Q01DX009 (ip), vehicle: Klucel (hydroxypropylcellulose) (HPC)) is 87 % of control; the T/C (dose: 50.0 mg/kg/injection, schedule: Q04DX003 (ip), vehicle: Klucel (hydroxypropylcellulose) (HPC)) was 86 % of control; the T/C under setting [12] is 92 % of control; the T/C (dose: 100.0 mg/kg/injection, schedule: Q01DX009 (ip), vehicle: Klucel (hydroxypropylcellulose) (HPC)) was 102 % of control; the T/C (dose: 100.0 mg/kg/injection, schedule: Q04DX003 (ip), vehicle: Klucel (hydroxypropylcellulose) (HPC)) is 89 % of control; the T/C under setting [13] is 94 % of control. For the same compound, the T/C by setting is: (dose: 200.0 mg/kg/injection, schedule: Q01DX009 (ip), vehicle: Klucel (hydroxypropylcellulose) (HPC)) 95 % of control; (dose: 200.0 mg/kg/injection, schedule: Q04DX003 (ip), vehicle: Klucel (hydroxypropylcellulose) (HPC)) 87 % of control.
